Assays:
[1] = target: T1, Dvl2^PDZ (PDZ domain of human Dishevelled2) (Homo sapiens, UniProt O14641); test: Microscale thermophoresis (MST) binding to Dvl2^PDZ; conditions: compared with wild-type WGEF^pep, triplicates
T1 construct: introducing a stop codon after C354 residue of Dvl2^PDZ to eliminate the fused peptide, cloned at the C-termini of PDZ; 6xHis (N, cleaved yes); host or cells: E. coli Rosetta (DE3)
T1 sequence (O14641 267-339 limits assumed): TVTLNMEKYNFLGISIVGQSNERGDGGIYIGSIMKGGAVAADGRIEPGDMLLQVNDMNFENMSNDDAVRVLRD
Description: MST experiments were performed using Monolith NT.115 instrument from Nanotemper technologies. Dvl2^PDZ domain was fluorescently labelled as per the instructions, using Monolith Redmaleimide 2nd generation-cysteine reactive label. The experimental condition consists of 10 mM Tris–HCl pH8, 150 mM NaCl, 2 mM DTT, 5% Glycerol and 0.05% Tween20. For Dvl2^PDZ-peptide affinity determination, synthetic WGEF peptides were serially diluted (1:2) 16 times, starting from an approximate concentration of 3.4 mM. 50 nM of fluorescently labelled Dvl2^PDZ domain was added to the serially diluted peptides, followed by incubation at 25 °C for 30 minutes. Thermophoresis signals were recorded at 20% of excitation power and 40% MST at 25 °C. Data was fitted using the Kd fit model in the MO. Affinity Analysis v2.3 software. Like peptides, hWGEF (330–581) protein was serially diluted to obtain a protein concentration range of 138–0.0042 µM. Experimental conditions were the same as mentioned above for peptides. All MST experiments were done in triplicates.
Guanine nucleotide exchange assays were performed in triplicates. Fluorescence decrease was fitted using a single exponential decay mode in GraphPad Prism. All results are reported with standard deviation (±SD). Statistical significance was calculated using ordinary One-way ANOVA with multiple comparisons. * Represents adjust P value with statistical significance of ****P < 0.0001, ***P < 0.001, **P < 0.01 and […]. MST assays were performed in triplicates. Data was fitted using the Kd fit model in the MO. Affinity Analysis v2.3 software. All results are reported with standard deviation (±SD). MD simulation runs for apo and peptide docked Dvl2^PDZ were performed in triplicates. Plots reported from MD simulation studies are represented with standard deviation (±SD).

[2] = system: Dvl2^PDZ–WGEF interaction; test: In vitro guanine nucleotide exchange (GEF) assay, peptide competition with Dvl2^PDZ-activated xWGEF330; assay type: biochemical, Xenopus laevis (xWGEF), human (hDvl2^PDZ; conditions: 200 µM peptide, 50 µM Dvl2^PDZ, 5 µM xWGEF330, 2 µM Mant-GDP loaded RhoA, 30 min at 25 °C, fluorescence 360/440 nm, triplicates
Description: Guanine nucleotide exchange assays were carried out using RhoA loaded with fluorescently labelled Mant-GDP[63],[64]. Briefly, 150 μM of RhoA was incubated with 5 Molar excess of fluorescent label, i.e., Mant-GDP in a buffer containing 10 mM Tris pH 8, 150 mM NaCl, 2 mM DTT, 5 mM EDTA, 0.5 mM MgCl2 and 5% Glycerol. The reaction was incubated on ice for 30 min, followed by the addition of 10 mM MgCl2 to stop the reaction. Excess Mant-GDP was removed through buffer exchange and Mant-GDP loaded RhoA was concentrated and stored at −80 °C. For assays, 2 μM of Mant-GDP loaded RhoA was incubated with 5 μM of xWGEF in the presence or absence of hDvl2^PDZ (0 μM, 25 μM and 50 μM) for 30 min at 25 °C. […] Once the fluorescence was stable, excess GTP (10x of labelled GTPase) was added to start the exchange reaction. […] A decrease in fluorescence was recorded using a BioTek Cytation5 plate reader with excitation and emission of 360 and 440 nm, respectively. Fluorescence was normalized and decrease was fitted using a single exponential decay mode in GraphPad Prism. […]
Guanine nucleotide exchange assays were performed in triplicates. Fluorescence decrease was fitted using a single exponential decay mode in GraphPad Prism. […]

Row | Sequence | Effect of alanine substitution on WGEF^pep–Dvl2^PDZ interaction (in words) [1] | Effect of peptide on GEF (nucleotide exchange) activity of Dvl2^PDZ-activated xWGEF330 [2]
1 | GSTFSLAQDIP [WGEF^pepW7A, alanine variant of WGEF^pep, …] | completely abolishes | –
2 | GSTFSLWQAIP [WGEF^pepD9A, alanine variant of WGEF^pep, …] | completely abolishes | decrease in the exchange activity of WGEF, but not to an extent brought out by the wild-type WGEF^pep
3 | GSTFSLWQDIA [WGEF^pepP11A, alanine variant of WGEF^pep, …] | completely abolishes | –
